Measured values from US10703746B2, “Mutant IDH1 inhibitors useful for treating cancer” (THE UNITED STATES OF AMERICA, AS REPRESENTED BY THE …, priority 2014, dated 2020).

Experiments:
IDH1 R132H = IDH1 R132H (Homo sapiens, UniProt O75874, R132H); assay: IDH1 R132H enzymatic assay (NADPH depletion coupled to diaphorase/resazurin); type: biochemical; conditions: IDH1 R132H enzymatic inhibition, IC50 class
IDH1 R132C = IDH1 R132C (Homo sapiens, UniProt O75874, R132C); assay: IDH1 R132C enzymatic assay (NADPH depletion coupled to diaphorase/resazurin); type: biochemical; conditions: IDH1 R132C enzymatic inhibition, IC50 class
In short: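 NADPH depletion, read via diaphorase/resazurin coupling, after adding substrate at 0.6 mM α-KG and 0.012 mM NADPH. Beforehand, 0.00032 mg/mL enzyme sat with compound 30 min at room temperature in pH 6.5 potassium phosphate buffer with MgCl2, glycerol and BSA.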

Chain of IDH1 R132H (O75874 whole entry R132H): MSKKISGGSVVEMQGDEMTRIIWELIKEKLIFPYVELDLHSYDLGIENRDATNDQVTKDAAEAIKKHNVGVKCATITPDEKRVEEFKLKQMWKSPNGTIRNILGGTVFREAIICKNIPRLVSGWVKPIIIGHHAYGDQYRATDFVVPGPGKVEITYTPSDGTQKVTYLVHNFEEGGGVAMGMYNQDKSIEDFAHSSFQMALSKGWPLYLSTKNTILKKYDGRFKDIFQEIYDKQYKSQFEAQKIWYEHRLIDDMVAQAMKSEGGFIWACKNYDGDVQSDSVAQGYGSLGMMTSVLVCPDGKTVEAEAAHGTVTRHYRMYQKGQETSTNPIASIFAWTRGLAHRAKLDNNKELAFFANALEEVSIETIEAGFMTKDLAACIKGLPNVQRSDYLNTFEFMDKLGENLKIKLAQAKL
Chain of IDH1 R132C (O75874 whole entry R132C): as the sequence (O75874 whole entry R132H) above, with H132C counted along it

Row | IC50 (IDH1 R132H) [nM] | IC50 (IDH1 R132C) [nM] | SMILES
1 | 1000 to 5000 | 1000 to 5000 | CCc1cccc(CC)c1-n1c2c(cc(-c3nc(-c4ccc(C)cn4)c(C)s3)c1=O)C(=O)CC(C)(C)C2 [Compound 292]
2 | 300 to 1000 | 300 to 1000 | CCc1cccc(CC)c1-n1c(CC)c(C(=O)NC)cc(-c2nc(-c3ccc(Cl)cc3)cs2)c1=O [Compound 293]
3 | > 20000 | 5000 to 20000 | COc1ccc(OC)c(-n2c3c(cc(-c4cc(-c5ccccc5)[nH]n4)c2=O)C(=O)CC(C)(C)C3)c1 [Compound 294]
4 | 1000 to 5000 | 300 to 1000 | CC1(C)CC(=O)c2cc(-c3nc(-c4ccc(Cl)cc4)cs3)c(=O)n(-c3ccccc3-c3ccccc3)c2C1 [Compound 295]
5 | 1000 to 5000 | 1000 to 5000 | CCc1cccc(CC)c1-n1c(C)c(C(=O)NC2CCOCC2)cc(-c2nc(-c3ccc(Cl)cc3)cs2)c1=O [Compound 296]
6 | 300 to 1000 | 300 to 1000 | CCc1cccc(CC)c1-n1c(CC(C)C)c(C(=O)N2CC(=O)N[C@@H](C(=O)O)C2)cc(-c2nc(-c3ccc(Cl)cc3)cs2)c1=O [Compound 297]
7 | > 20000 | 5000 to 20000 | CCc1cccc(CC)c1-n1c2c(cc(-c3nc(C4=CCNCC4)c(C)s3)c1=O)C(=O)CC(C)(C)C2 [Compound 298]
8 | 1000 to 5000 | 1000 to 5000 | CCc1cccc(CC)c1-n1c2c(cc(-c3nc(-c4ccc(C)nc4)c(C)s3)c1=O)C(=O)CC(C)(C)C2 [Compound 299]
9 | < 300 | 300 to 1000 | CCc1cccc(CC)c1-n1c(C)c(C(=O)N2CCNCC2)cc(-c2nc(-c3ccc(Cl)cc3)cs2)c1=O [Compound 300]
10 | 1000 to 5000 | 1000 to 5000 | CC1(C)CC(=O)c2cc(-c3nc(-c4ccc(Cl)cc4)cs3)c(=O)n(-c3ccccc3N)c2C1 [Compound 301]
11 | 300 to 1000 | 300 to 1000 | CCc1cccc(CC)c1-n1c(C)c(C(=O)NC2CCNCC2)cc(-c2nc(-c3ccc(Cl)cc3)cs2)c1=O [Compound 302]
12 | 300 to 1000 | 1000 to 5000 | CCc1cccc(CC)c1-n1c(C)c(C(=O)NCCN)cc(-c2nc(-c3ccc(Cl)cc3)cs2)c1=O [Compound 303]
13 | 1000 to 5000 | 300 to 1000 | CCc1cccc(CC)c1-n1c(C)c(C(=O)NCCCNC)cc(-c2nc(-c3ccc(Cl)cc3)cs2)c1=O [Compound 304]
14 | 300 to 1000 | < 300 | CCc1cccc(CC)c1-n1c(CC(C)C)c(C(=O)N2CCNC(C)C2)cc(-c2nc(-c3ccc(Cl)cc3)cs2)c1=O (stereo not shown) [Compound 305]
15 | 5000 to 20000 | 5000 to 20000 | COc1ccc(OC)c(-n2c3c(cc(-c4nc(-c5ccc(Cl)cc5)no4)c2=O)C(=O)CC(C)(C)C3)c1 [Compound 306]
16 | 5000 to 20000 | 5000 to 20000 | CCc1cccc(CC)c1-n1c(CC(C)C)c(C(=O)N2CCNCC2)cc(-c2nc(-c3ccc(C(N)=O)cc3)c(C)s2)c1=O [Compound 307]
17 | 1000 to 5000 | 1000 to 5000 | CCc1cccc(CC)c1-n1c(C)c(C(=O)N(C)CCO)cc(-c2nc(-c3ccc(Cl)cc3)cs2)c1=O [Compound 308]
18 | 5000 to 20000 | 5000 to 20000 | CCc1cccc(CC)c1-n1c2c(cc(C(=O)N(C)Cc3ccc(Cl)cc3)c1=O)C(=O)CC(C)(C)C2 [Compound 309]
19 | 1000 to 5000 | 1000 to 5000 | CCc1cccc(CC)c1-n1c(CC(C)C)c(C(=O)N2CCNCC2)cc(-c2cccc(-c3ccc(Cl)cc3)n2)c1=O [Compound 310]
20 | 1000 to 5000 | 1000 to 5000 | CCc1cccc(CC)c1-n1c(C)c(C(=O)NC(C)C)cc(-c2nc(-c3ccc(Cl)cc3)cs2)c1=O [Compound 311]
21 | 1000 to 5000 | 300 to 1000 | CCc1cccc(CC)c1-n1c(CC(C)C)c(C(=O)N2CCCCC2CO)cc(-c2nc(-c3ccc(Cl)cc3)cs2)c1=O (stereo not shown) [Compound 312]
22 | > 20000 | 1000 to 5000 | CCc1cccc(CC)c1-n1c(C)c(C(=O)NCC(C)C)cc(-c2nc(-c3ccc(Cl)cc3)cs2)c1=O [Compound 313]
23 | 300 to 1000 | 300 to 1000 | CCc1cccc(CC)c1-n1c(CC(C)C)c(C(=O)N2CCNC(C(F)(F)F)C2)cc(-c2nc(-c3ccc(Cl)cc3)cs2)c1=O (stereo not shown) [Compound 314]
24 | 300 to 1000 | 1000 to 5000 | CCc1ncc(F)cc1-n1c(C=C(C)C)c(C(=O)N2CCNCC2)cc(-c2nc(-c3ccc(C(F)(F)F)nc3)cs2)c1=O [Compound 315]
25 | < 300 | < 300 | CC(C)=Cc1c(C(=O)N2CCNCC2)cc(-c2nc(-c3ccc(Cl)cc3)cs2)c(=O)n1-c1cc(F)cnc1OC(C)C [Compound 316]
26 | 5000 to 20000 | 1000 to 5000 | CCc1cccc(CC)c1-n1c(-c2ccn(-c3ccccc3)n2)c(C(=O)N2CCNCC2)cc(-c2nc(-c3ccc(Cl)cc3)cs2)c1=O [Compound 317]
27 | 1000 to 5000 | 1000 to 5000 | COc1ccc(F)cc1-n1c2c(cc(-c3nc(-c4ccc(Cl)cc4)cs3)c1=O)C(=O)CCC2 [Compound 318]

Row | IC50 (IDH1 R132H) [nM] | IC50 (IDH1 R132C) [nM] | SMILES
28 | 5000 to 20000 | 5000 to 20000 | COc1cccc(CN2CCN(C)CC2)c1-n1c2c(cc(-c3nc(-c4ccc(Cl)cc4)cs3)c1=O)C(=O)CC(C)(C)C2 [Compound 319]
29 | 300 to 1000 | < 300 | CCc1cccc(CC)c1-n1c(C=C(C)C)c(C(=O)N2CCC3(CCNC3)C2)cc(-c2nc(-c3ccc(Cl)cc3)cs2)c1=O (stereo not shown) [Compound 320]
30 | 300 to 1000 | 300 to 1000 | CCc1cccc(CC)c1-n1c(CC(C)C)c(C(=O)N2CCNCC2)cc(-c2nc(-c3ccc(OC)nc3)c(C)s2)c1=O [Compound 322]
31 | < 300 | < 300 | CCc1cccc(CC)c1-n1c(C=C(C)C)c(C(=O)N2C[C@H]3CC[C@@H](C2)N3)cc(-c2nc(-c3ccc(C(F)(F)F)cc3)cs2)c1=O [Compound 323]
32 | < 300 | < 300 | CCc1cccc(CC)c1-n1c(C=C(C)C)c(C(=O)N2CCNC3(CC3)C2)cc(-c2nc(-c3ccc(C(F)(F)F)cc3)cs2)c1=O [Compound 324]
33 | < 300 | 300 to 1000 | CCOc1ncc(C)cc1-n1c(C=C(C)C)c(C(=O)N2CCNCC2)cc(-c2nc(-c3ccc(C(F)F)nc3)cs2)c1=O [Compound 326]
34 | < 300 | < 300 | CCc1ncc(F)cc1-n1c(C=C(C)C)c(C(=O)N2CCNCC2)cc(-c2nc(-c3ccc(C(F)(F)F)cc3)cs2)c1=O [Compound 328]
35 | < 300 | < 300 | CCOc1ccc(F)cc1-n1c(C=C(C)C)c(C(=O)N2CCNCC2)cc(-c2nc(-c3ccc(C(F)(F)F)cc3)cs2)c1=O [Compound 329]
36 | < 300 | 300 to 1000 | CCc1ncc(C)cc1-n1c(C=C(C)C)c(C(=O)N2CCNCC2)cc(-c2nc(-c3ccc(Cl)cc3)cs2)c1=O [Compound 330]
37 | < 300 | 300 to 1000 | CCOc1ncccc1-n1c(C=C(C)C)c(C(=O)N2CCNCC2)cc(-c2nc(-c3ccc(Cl)cc3)cs2)c1=O [Compound 331]
38 | 300 to 1000 | < 300 | CCc1cccc(CC)c1-n1c(C=C(C)C)c(C(=O)N2CCNCC2C(C)C)cc(-c2nc(-c3ccc(Cl)cc3)cs2)c1=O (stereo not shown) [Compound 332]
39 | < 300 | < 300 | CCc1ccc(N(C)C)cc1-n1c(C=C(C)C)c(C(=O)N2CCNCC2)cc(-c2nc(-c3ccc(Cl)cc3)cs2)c1=O [Compound 333]
40 | 300 to 1000 | 1000 to 5000 | CCc1ncc(OC)cc1-n1c(C=C(C)C)c(C(=O)N2CCNCC2)cc(-c2nc(-c3ccc(C(F)(F)F)nc3)cs2)c1=O [Compound 334]
41 | < 300 | < 300 | CCc1cccc(CC)c1-n1c(C=C(C)C)c(C(=O)N2CCNCC2)cc(-c2nc(-c3ccc(C(F)F)cc3)cs2)c1=O [Compound 336]
42 | < 300 | < 300 | CCc1cccc(CC)c1-n1c(C=C(C)C)c(C(=O)N2CCNC(=O)C2CC(=O)O)cc(-c2nc(-c3ccc(Cl)cc3)cs2)c1=O (stereo not shown) [Compound 337]
43 | 1000 to 5000 | 300 to 1000 | CCc1cccc(CC)c1-n1c2c(cc(-c3nc(-c4ccc(Cl)cc4)cs3)c1=O)C(=O)N(C)C2C(C)C (stereo not shown) [Compound 338]
44 | 5000 to 20000 | 1000 to 5000 | O=C1CCCc2c1cc(-c1nc(-c3ccc(Cl)cc3)cs1)c(=O)n2-c1ccccc1CN1CCOCC1 [Compound 339]
45 | 300 to 1000 | 300 to 1000 | CCc1cccc(CC)c1-n1c(CC(C)C)c(C(=O)N2CCNCC2)cc(-c2nc(-c3ccc(Cl)cc3)co2)c1=O [Compound 340]
46 | 300 to 1000 | 1000 to 5000 | CC(C)=Cc1c(C(=O)N2CCNCC2)cc(-c2nc(-c3ccc(Cl)cc3)cs2)c(=O)n1-c1ccccc1 [Compound 341]
47 | 5000 to 20000 | 5000 to 20000 | Cc1cc(CO)ccc1-n1c2c(cc(-c3nc(-c4ccc(Cl)cc4)cs3)c1=O)C(=O)CCC2 [Compound 342]
48 | 1000 to 5000 | 1000 to 5000 | O=C1CCCc2c1cc(-c1nc(-c3ccc(Cl)cc3)cs1)c(=O)n2-c1ccccc1OCC(F)(F)F [Compound 343]
49 | 300 to 1000 | < 300 | CCc1cccc(CC)c1-n1c(C=C(C)C)c(C(=O)N2CC3(CCNC3)C2)cc(-c2nc(-c3ccc(Cl)cc3)cs2)c1=O [Compound 344]
50 | 1000 to 5000 | 1000 to 5000 | CCc1cccc(CC)c1-n1c(C=C(C)C)c(C(=O)N2CCNCC2)cc(-c2nn(-c3ccc(Cl)cc3)cc2Cl)c1=O [Compound 345]
51 | 300 to 1000 | 300 to 1000 | Cc1cc(C#N)c(-n2c3c(cc(-c4nc(-c5ccc(Cl)cc5)cs4)c2=O)C(=O)CC(C)(C)C3)s1 [Compound 346]
52 | 5000 to 20000 | 5000 to 20000 | CCOC(=O)c1c(O)c(-c2nc(-c3ccc(Cl)cc3)cs2)c(=O)n(-c2c(CC)cccc2CC)c1C [Compound 347, ethyl 5-(4-(4-chlorophenyl)thiazol-2-yl)-1-(2,6-diethylphenyl)-4-hydroxy-2-methyl-6-oxo-1,6-dihydropyridine-3-carboxylate]
53 | < 300 | < 300 | CCOc1ccc(OCC)c(-n2c(C=C(C)C)c(C(=O)N3CCNCC3)cc(-c3nc(-c4ccc(Cl)cc4)cs3)c2=O)c1 [Compound 348]
